Experimental data reported in the supplement of paper PMC8671470.

Columns and labels:
Details in all cases: 72 h
[1] = test system: HL-60; assay: area under dose-response curve (viability, 1 nM-10 uM) (fraction (0-1)); higher = more sensitive
Method in brief: (§1)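 Area under the curve, where listed, was derived from four-parameter log-logistic fits with drc and PharmacoGx. These fits used CellTiter-Glo viability from HL-60 cells in RPMI 1640 with 10% FBS, normalised to DMSO wells and wells holding 10 μM proteasome inhibitor. The full library was rescreened on 384-well plates in duplicate at five tenfold concentrations, 1–10,000 nM, with DMSO or 100 nM of one of three metabolic inhibitors, for 72 h at 37 °C, 5% CO2.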

[2] = test system: HL-60; assay: cell viability (% survival relative to DMSO control); higher = less cytotoxic
Method in brief: as §1

[3] = test system: KCL-22
Method in brief: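 Fifteen myeloid leukaemia lines were incubated for 72 h at 37 °C with 5% CO2 across five tenfold doses from 1 to 10,000 nM, in duplicate. ATP luminescence was normalised to vehicle and to a positive control at 10 µM and fitted with a four-parameter log-logistic model. The IC50 came from these dose–response fits.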

[4] = test system: BV-173; assay: cell viability (% survival relative to DMSO control, bortezomib = 0%); higher = less cytotoxic
Method in brief: (§2)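 Fifteen myeloid leukaemia cell lines (10 AML, 5 CML) were seeded at a density titrated to the linear growth range into 384-well plates pre-printed with compounds at 1, 10, 100, 1000 or 10000 nM in duplicate. Plates were incubated for 72 h at 37 °C with 5% CO2. Viability was then read by CellTiter-Glo luminescence. Each value is percent survival averaged over the duplicates, with vehicle set to 100% and a 10 µM positive control to 0%.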

[5] = test system: KU-812; assay: as above
Method in brief: as §2

[6] = test system: SHI-1; assay: as above
Method in brief: as §2

[7] = test system: HL-60; assay: as above
Method in brief: as §2

[8] = test system: ML-2; assay: as above
Method in brief: as §2

[9] = test system: KG-1; assay: as above
Method in brief: as §2

[10] = test system: MV4-11; assay: as above
Method in brief: as §2

[11] = test system: LAMA-84; assay: as above
Method in brief: as §2

[12] = test system: NOMO-1; assay: as above
Method in brief: as §2

[13] = test system: Mono-Mac-6; assay: as above
Method in brief: as §2

[14] = test system: THP-1; assay: as above
Method in brief: as §2

[15] = test system: HEL; assay: as above
Method in brief: as §2

[16] = test system: MOLM-13; assay: as above
Method in brief: as §2

[17] = test system: K-562; assay: as above
Method in brief: as §2

[18] = test system: KCL-22; assay: as above
Method in brief: as §2

COC(=O)[C@]12CCC(C)(C)C[C@H]1[C@H]1C(=O)C=C3[C@@]4(C)C=C(C#N)C(=O)C(C)(C)[C@@H]4CC[C@@]3(C)[C@]1(C)CC2 [Bardoxolone methyl]
Details	area under dose-response curve, co-treatment: AZD3965 100 nM	area under dose-response curve, co-treatment: DMSO vehicle	area under dose-response curve, co-treatment: GSK2194069 100 nM	area under dose-response curve, co-treatment: pictilisib 100 nM	cell viability, 1 nM [%]	cell viability, 10 nM [%]	cell viability, 100 nM [%]	cell viability, 1000 nM [%]	cell viability, 10000 nM [%]
[1]	0.0976	< 0.0301	0.0723	0.144	–	–	–	–	–
[4]	–	–	–	–	89.7	102	116	61	5.94
[5]	–	–	–	–	84.9	104	113	91.3	59.2
[6]	–	–	–	–	107	103	118	106	94.3
[7]	–	–	–	–	114	91.8	112	93.6	94.2
[8]	–	–	–	–	91.7	103	113	73.1	-0.425
[9]	–	–	–	–	96.6	101	117	53.5	1.37
[10]	–	–	–	–	113	111	112	94.3	96.9
[11]	–	–	–	–	98.9	96.1	107	106	86
[12]	–	–	–	–	99.4	99.3	115	101	80.8
[13]	–	–	–	–	82.9	103	123	44.6	13.7
[14]	–	–	–	–	95.2	104	108	81.6	56.3
[15]	–	–	–	–	106	92.6	117	84.7	-0.0991
[16]	–	–	–	–	107	81.7	118	91.9	87.5
[17]	–	–	–	–	106	97.5	114	98.8	86.9
[18]	–	–	–	–	100	107	112	56.2	0.0358

cell viability [%], [2]
Details	0.001 µM	0.01 µM	0.1 µM	1 µM	10 µM
co-treatment: AZD3965 100 nM	101	98	110	90.8	32.6
co-treatment: DMSO vehicle	102.3	97.6	101	97.8	107
co-treatment: GSK2194069 100 nM	100	92.7	104	88.8	54.3
co-treatment: pictilisib 100 nM	98.9	78.7	73.5	78.4	0.653

Details	IC50 (cell viability) [µM]
[3]	1.14

CCCCC/C=C\C/C=C\C/C=C\C/C=C\CCCCN1C(=O)C=CC1=O [N-Arachidonylmaleimide]
Details	area under dose-response curve, co-treatment: AZD3965 100 nM	area under dose-response curve, co-treatment: DMSO vehicle	area under dose-response curve, co-treatment: GSK2194069 100 nM	area under dose-response curve, co-treatment: pictilisib 100 nM	cell viability, 1 nM [%]	cell viability, 10 nM [%]	cell viability, 100 nM [%]	cell viability, 1000 nM [%]	cell viability, 10000 nM [%]
[1]	< 0.0301	< 0.0301	< 0.0301	< 0.0301	–	–	–	–	–
[4]	–	–	–	–	99.9	97.7	97.8	94.8	96.8
[5]	–	–	–	–	103	97.9	94.6	97.2	91.4
[6]	–	–	–	–	100	102	96.7	104	88.9
[7]	–	–	–	–	111	94.7	81.8	125	88.1
[8]	–	–	–	–	95.9	97.1	96.6	94.3	91
[9]	–	–	–	–	98.9	97.9	101	93.1	103
[10]	–	–	–	–	82.1	97.8	106	93.2	95.3
[11]	–	–	–	–	96.8	99.9	98.4	97.7	96
[12]	–	–	–	–	95.5	98.1	103	96.5	99.4
[13]	–	–	–	–	94	101	91.1	107	101
[14]	–	–	–	–	102	99.2	101	97.7	96.3
[15]	–	–	–	–	98.7	102	97.9	103	89.7
[16]	–	–	–	–	98.8	109	101	110	88
[17]	–	–	–	–	103	91.5	93.4	110	90.6
[18]	–	–	–	–	90.9	95.7	100	105	95

cell viability [%], [2]
Details	0.001 µM	0.01 µM	0.1 µM	1 µM	10 µM
co-treatment: AZD3965 100 nM	98.7	89.7	98.58	99.6	101
co-treatment: DMSO vehicle	92.6	95.4	101.04	101	100.9
co-treatment: GSK2194069 100 nM	96.8	84.8	98.4	100	100.5
co-treatment: pictilisib 100 nM	96.4	84.8	97	97.89	103

Details	IC50 (cell viability) [µM]
[3]	> 10

CN(C)c1cc(NC(=O)CNC(C)(C)C)c(O)c2c1C[C@H]1C[C@H]3[C@H](N(C)C)C(=O)C(C(N)=O)C(=O)[C@@]3(O)C(=O)C1C2=O (stereo not given in full) [Tigecycline]
Details	area under dose-response curve, co-treatment: AZD3965 100 nM	area under dose-response curve, co-treatment: DMSO vehicle	area under dose-response curve, co-treatment: GSK2194069 100 nM	area under dose-response curve, co-treatment: pictilisib 100 nM	cell viability, 1 nM [%]	cell viability, 10 nM [%]	cell viability, 100 nM [%]	cell viability, 1000 nM [%]	cell viability, 10000 nM [%]
[1]	< 0.0301	< 0.0301	< 0.0301	< 0.0301	–	–	–	–	–
[4]	–	–	–	–	119	107	97.4	84	83.4
[5]	–	–	–	–	102	97	95.8	94.4	86.8
[6]	–	–	–	–	113	97.9	97.1	115	93.4
[7]	–	–	–	–	153	81.2	69.6	110	75.6
[8]	–	–	–	–	118	93.4	90.8	96.4	63
[9]	–	–	–	–	111	82.5	104	94.8	66.5
[10]	–	–	–	–	117	89.3	101	88.3	93.2
[11]	–	–	–	–	105	94.3	105	102	90
[12]	–	–	–	–	106	97.7	87	101	99.3
[13]	–	–	–	–	112	108	100	105	93.7
[14]	–	–	–	–	107	100	104	105	105
[15]	–	–	–	–	110	92.4	101	99.7	71.6
[16]	–	–	–	–	119	84	90.8	96	88.9
[17]	–	–	–	–	102	93.4	92.1	90.6	83.4
[18]	–	–	–	–	108	95	96.4	94.6	79.4

cell viability [%], [2]
Details	0.001 µM	0.01 µM	0.1 µM	1 µM	10 µM
co-treatment: AZD3965 100 nM	103	98.51	106	103	101
co-treatment: DMSO vehicle	102	102.7	105	101.5	105
co-treatment: GSK2194069 100 nM	101.8	96.3	101	96.7	103
co-treatment: pictilisib 100 nM	97.3	100	103.3	101.8	102

Details	IC50 (cell viability) [µM]
[3]	> 10
